In US5244916A, “Inhibition of respiratory burst using posttranslational modification inhibitors” (The Scripps Research Institute, priority 1992, dated 1993):

Key:
NADPH oxidase = experiment: Cell-free oxidase system with compactin included in the assay cuvette; format: biochemical; settings: 10 μM compactin in the assay cuvette
Description: To assess O2 --formation using HL-60 membrane and cytosol, the cell-free system of Curnutte, et al. (Curnutte, et al., J. Biol. Chem. 262: 5563-5569 (1987); Curnutte, et al.,m J. Biol. Chem. 262: 6450-6452 (1987)) was utilized. Briefly, HL-60 membrane pellet (50-60μg) or human neutrophil membrane (6.35×10^6 cell equivalents) was added to a cuvette containing 100 μM cytochrome c (type III, Sigma Chemical Co., St. Louis, MO), 6.25 mM MgCl2, 93 mM KCl, 2.8 mM NaCl, 9.3 mM Pipes pH 7.3, 0.8mM ATP, 0.16 mM NADPH, 10 μM GTPgammaS, 225 μg HL-60 cytosol, or 250 μg ([…]; cell equivalents) of human neutrophil cytosol and ±300μg/ml SOD (Sigma Chemical Co., St. Louis, MO). After a three-minute equilibration at 25° C., the formation of O2 --was initiated by the addition of 100 μM SDS. O2 --generation was monitored continuously as the SOD-sensitive reduction of cytochrome c at 550 nm. Human neutrophil plasma membranes (gamma-GSP) and cytosol (GSS) were prepared as described in (Curnutte, et al., suora (1987)).
Treatment of peripheral blood neutrophils with 10 μM compactin for up to two hours produced no effect upon the ability of these cells to support a respiratory burst in response to FMLP. […] It seems unlikely that both compounds would randomly produce similar nonspecific toxic effects on the NADPH oxidase.

[1] = test system: peripheral blood neutrophils; experiment: Respiratory burst of peripheral blood neutrophils in response to FMLP after short-term compactin; format: cell-based; settings: 10 μM, up to two hours
[2] = test system: HL-60 cells (NADPH oxidase / respiratory burst); experiment: Prevention of compactin-inhibition of FMLP-stimulated O2- formation in HL-60 cells by mevalonic acid and other supplements; format: cell-based
Description: HL-60 cells were maintained in stationary culture in RPMI 1640 medium (Gibco, Grand Island, NY) containing 10% fetal bovine serum at 37° C in an atmosphere of 95 air and 5% CO2. The cells (about 8×10^5 /ml) were differentiated into neutrophil-like cells by treatment with 1.3% DMSO for six days (Harris, et al., J. Leukocyte Biol. 37: 407-422 (1985)). The cells were treated with the indicated levels of compactin or lovastatin by addition of a 1,000-fold concentrated stock solution to the appropriate concentration on day 4 of differentiation. […] In studies of the protective effect of mevalonic acid, the compound was added as the mevalonolactone (Sigma Chemical Co., St. Louis, MO) at a concentration of 1 mM to the cell culture on days 4 to 6. Similarly, cholesterol was added in the form of LDL prepared according to the method of Curtiss and Edgington (Curtiss, et al., J. Biol. Chem. 257: 15213-15221 (1991)) at a final concentration of 50 μg/ml; ubiquinone (Sigma Chemical Co., St. Louis, MO) was added as Coenzyme Q-10 at a final concentration of 0.5 mM; and dolichol (Sigma Chemical Co., St. Louis, MO) was added as a dispersion in phosphatidylcholine at a final concentration of 0.5 mM (Cutts, et al., J. Cell Physiol. 139: 550-555 (1989)).
O2 --formation by HL-60 cells was assessed by the SOD-sensitive reduction of cytochrome c. Cells were suspended at 1×10^7 /ml in Krebs-Ringer Hepes buffer with 5.5 mM glucose (KRHG) and 50-100μl of cells were added to a cuvette containing 100 μM cytochrome c (type III, Sigma Chemical Co., St. Louis, MO), ±300 μg/ml SOD (Sigma Chemical Co., St. Louis, MO) in 700-750 μl KRHG. Cytochalasin b (Sigma Chemical Co., St. Louis, MO) was added to a final concentration of 5 μg/ml, and the cells were incubated at 37° C. for five minutes while a stable baseline at a wavelength of 550 nm was obtained. O2 --formation was initiated by the addition of 1 μM N-formylmethionylleucylphenylalanine (FMLP; Sigma Chemical Co., St. Louis, MO) or 1μg/ml phorbol myristate acetate (PMA; Sigma Chemical Co., St. Louis, MO). Cytochrome c reduction at 550nm was continuously monitored and maximal rate and extent of the reaction calculated.
Inhibition of protein isoprenylation can interfere with LMWG function without inhibiting overall cellular function (Maltese, supra (1990)). Since compactin inhibits at the enzymatic step preceding mevalonic acid synthesis, one should be able to reverse effects of compactin due specifically to inhibition of this pathway by addition of exogenous mevalonic acid.

HL-60 cells = experiment: HL-60 differentiation after DMSO (N-formyl peptide receptor and CD14 markers); format: cell-based; settings: concentrations of the studies
Description: Cell viability was determined by uptake of propidium iodide (537-059; Calbiochem-Behring Corp., La Jolla, CA), detected from the emission fluorescence at 625/35 nm using a DM560 dichronic mirror (Krishan, J. Cell. Biol. 66: 188-192 (1975)). Expression of N-formyl peptide receptor was determined using fluorescein-labeled N-CHONle-Leu-Phe-Nle-Tyr-Lys (Molecular Probes, Inc., Eugene, OR) essentially by the method of Sklar and Finney (Sklar and Finney, Cytometry 3: 161-165 (1982)). Specificity of ligand binding was determined in the presence of 4 mM unlabeled T-boc peptide. CD14 expression was determined using monoclonal antibody 3C10 at a dilution of 1:1,000 (see Goyert and Ferrero, in Leucocyte Typing III: White Cell Differentiation Antigens, McMichael, ed., Oxford Univ. Press, NY, pp. 613-619 (1988)), with detection using a fluorescein-labeled secondary antibody. Flow cytometric analyses were performed on a FACSIV (registered trademark of Becton-Dickinson, San Jose, CA) equipped with a 2W argon laser (Coherent Inc., Palo Alto, collected in list mode and analyzed using the Consort 30 program (Becton-Dickinson, San Jose, CA) after collecting 10,000 events.
HL-60 differentiation was assessed using two distinct markers: appearance of N-formyl peptide receptors and appearance of the CD14 antigen.

[3] = 4 μM compactin + 1 mM mevalonate
[4] = 10 μM compactin + 50 μg/ml cholesterol, n = 2
[5] = 10 μM compactin + 1 mM mevalonate

SMILES: CC[C@H](C)C(=O)O[C@H]1CCC=C2C=C[C@H](C)[C@H](CC[C@@H]3C[C@@H](O)CC(=O)O3)[C@H]21 [compactin]
- inhibition of O2- formation, cell-free (NADPH oxidase): did not inhibit
- effect on respiratory burst of peripheral blood neutrophils [1]: no effect
- FMLP-stimulated O2- formation, Extent ([2]; 4 μM compactin): 28 ± 3.5 % of control
- FMLP-stimulated O2- formation, Rate ([2]; 4 μM compactin): 43 ± 5.0 % of control
- FMLP-stimulated O2- formation, Extent [2, 3]: 96 ± 8.0 % of control
- FMLP-stimulated O2- formation, Rate [2, 3]: 97 ± 4.0 % of control
- FMLP-stimulated O2- formation, Extent ([2]; 10 μM compactin): 13 ± 0.4 % of control
- FMLP-stimulated O2- formation, Rate ([2]; 10 μM compactin): 19 ± 3.9 % of control
- FMLP-stimulated O2- formation, Extent [2, 4]: 22 % of control
- FMLP-stimulated O2- formation, Rate [2, 4]: 28 % of control
- FMLP-stimulated O2- formation, Extent [2, 5]: 114 ± 1.6 % of control
- FMLP-stimulated O2- formation, Rate [2, 5]: 115 ± 7.6 % of control
- ability of HL-60 cells to differentiate normally upon exposure to DMSO (HL-60 cells): neither was the ability of these cells to differentiate normally
